Where “and” joins values, the source holds several entries; their conditions need not be identical. Equal values may be shown once. Read-outs that look alike come from different tables or passages of the source.
Legend:
[1] = aqueous solution, cited from earlier work
[2] = cited from earlier work
[3] = aqueous solution

Nc1ncn([C@H]2C[C@H](O)[C@@H](CO)O2)c(=O)n1 [decitabine, 5-aza-2′-deoxycytidine]
decrease of concentration of decitabine ([1]; after 4 hours at 25° C.): about 10%
decrease of concentration of decitabine ([1]; after 24 hours at 4° C.): about 10%
decitabine concentration in patients ([2]; 100 mg/m^2 as a 3-hour infusion): about 0.4 μg/ml and ~2 μM
total urinary excretion, % of the administered dose ([2]; humans): less than 1%
volume of distribution ([2]; humans): about 4.6 L/kg
decitabine remaining in active form ([3]; storage at 4° C. for 6 days): less than 50%
decitabine remaining in active form ([3]; storage at 25° C. for 1 day): less than 50%

— patent publication US7135464B2, “Method of administering decitabine” (SuperGen, Inc., priority 2002, dated 2006)
